Key:
Test in all cases: radiometric filter-binding kinase assay
MAP2K1 (human) = MAP2K1 (human) (UniProt Q02750)
CAMKK2 (human) = CAMKK2 (human) (UniProt Q96RR4)
GCK (human) = GCK (human) (UniProt Q12851); conditions: compound 10.0 µM
PIM2 (human) = PIM2 (human) (UniProt Q9P1W9)
NEK2 (human) = NEK2 (human) (UniProt P51955)
MAPK1 (human) = MAPK1 (human) (UniProt P28482)
MINK1 (human) = MINK1 (human) (UniProt Q8N4C8); conditions: compound 10.0 µM
YES1 (human) = YES1 (human) (UniProt P07947); conditions: compound 10.0 µM
PKN2 (human) = PKN2 (human) (UniProt Q16513)
MAPK9 (human) = MAPK9 (human) (UniProt P45984)
IGF1R (human) = IGF1R (human) (UniProt P08069); conditions: compound 10.0 µM
SRC (human) = SRC (human) (UniProt P12931)
STK3 (human) = STK3 (human) (UniProt Q13188)
PRKAA1 or PRKAA2 (rat) = conditions: accession and sequence are those of the human protein
MAP3K5 (human) = MAP3K5 (human) (UniProt Q99683); conditions: compound 10.0 µM
AURKB (human) = AURKB (human) (UniProt Q96GD4)
PHKG1 (human) = PHKG1 (human) (UniProt Q16816)
PRKACA (human) = PRKACA (human) (UniProt P17612)
MARK2 (human) = MARK2 (human) (UniProt Q7KZI7); conditions: compound 10.0 µM
[1] = target: STK11 CAB39 STRADA (human) (UniProt Q9Y376+Q7RTN6+Q15831); conditions: compound 10.0 µM
MAPKAPK2 (human) = MAPKAPK2 (human) (UniProt P49137)
MAP3K1 (human) = MAP3K1 (human) (UniProt Q13233); conditions: compound 10.0 µM
CHEK2 (human) = CHEK2 (human) (UniProt O96017)
IKBKB (human) = IKBKB (human) (UniProt O14920)
MAPK3 (human) = MAPK3 (human) (UniProt P27361)
[2] = system: AKT2 (human), P31751 [S474D]
EPHB4 (human) = EPHB4 (human) (UniProt P54760); conditions: compound 10.0 µM
NTRK1 (human) = NTRK1 (human) (UniProt P04629); conditions: compound 10.0 µM
CHEK1 (human) = CHEK1 (human) (UniProt O14757)
MAPK15 (human) = MAPK15 (human) (UniProt Q8TD08)
MAPK10 (human) = MAPK10 (human) (UniProt P53779)
RPS6KA1 KD1 KD2 (human) = RPS6KA1 KD1 KD2 (human) (UniProt Q15418)
PRKCA (human) = PRKCA (human) (UniProt P17252)
MKNK1 (human) = MKNK1 (human) (UniProt Q9BUB5)
MKNK2 (human) = MKNK2 (human) (UniProt Q9HBH9)

STK3 (human), sequence (Q13188 whole entry, looked up): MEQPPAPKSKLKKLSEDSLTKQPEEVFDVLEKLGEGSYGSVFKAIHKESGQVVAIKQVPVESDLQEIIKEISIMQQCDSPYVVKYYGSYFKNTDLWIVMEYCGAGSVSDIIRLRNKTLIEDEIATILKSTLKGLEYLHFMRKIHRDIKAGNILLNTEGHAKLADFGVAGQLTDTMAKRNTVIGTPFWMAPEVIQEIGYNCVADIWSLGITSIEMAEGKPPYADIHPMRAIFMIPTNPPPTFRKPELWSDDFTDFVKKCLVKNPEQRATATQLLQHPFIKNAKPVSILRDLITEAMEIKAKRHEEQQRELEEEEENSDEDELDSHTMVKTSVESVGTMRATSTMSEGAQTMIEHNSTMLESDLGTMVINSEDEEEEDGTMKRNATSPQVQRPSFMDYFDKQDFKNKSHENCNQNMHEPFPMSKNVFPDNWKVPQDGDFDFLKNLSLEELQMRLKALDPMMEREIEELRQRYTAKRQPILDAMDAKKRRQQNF
MAPK1 (human), sequence (P28482 whole entry, looked up): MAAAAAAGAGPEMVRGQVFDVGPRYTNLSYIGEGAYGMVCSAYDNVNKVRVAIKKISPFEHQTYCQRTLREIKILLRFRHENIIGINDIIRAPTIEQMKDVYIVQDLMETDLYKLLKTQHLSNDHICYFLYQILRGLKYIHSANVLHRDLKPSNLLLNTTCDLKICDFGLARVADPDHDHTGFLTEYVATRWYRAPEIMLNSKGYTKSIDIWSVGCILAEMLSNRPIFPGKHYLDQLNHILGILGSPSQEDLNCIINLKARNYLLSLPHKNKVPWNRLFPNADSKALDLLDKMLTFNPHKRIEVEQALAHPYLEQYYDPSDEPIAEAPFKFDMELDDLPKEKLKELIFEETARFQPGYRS
MKNK1 (human), sequence (Q9BUB5 whole entry, looked up): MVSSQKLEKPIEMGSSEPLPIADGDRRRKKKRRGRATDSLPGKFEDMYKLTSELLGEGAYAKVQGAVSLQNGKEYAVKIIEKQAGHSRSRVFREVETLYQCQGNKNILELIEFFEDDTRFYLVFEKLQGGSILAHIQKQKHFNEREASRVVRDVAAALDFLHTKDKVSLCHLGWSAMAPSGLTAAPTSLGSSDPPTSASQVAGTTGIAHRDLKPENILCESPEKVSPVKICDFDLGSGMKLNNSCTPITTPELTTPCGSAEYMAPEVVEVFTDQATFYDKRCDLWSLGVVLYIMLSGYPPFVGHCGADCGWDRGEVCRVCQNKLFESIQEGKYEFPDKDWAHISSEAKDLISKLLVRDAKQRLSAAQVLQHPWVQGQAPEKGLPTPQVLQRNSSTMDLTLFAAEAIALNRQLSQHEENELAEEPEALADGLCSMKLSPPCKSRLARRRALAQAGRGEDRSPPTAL
AKT2 (human), P31751 [S474D], sequence (P31751 whole entry S474D, looked up): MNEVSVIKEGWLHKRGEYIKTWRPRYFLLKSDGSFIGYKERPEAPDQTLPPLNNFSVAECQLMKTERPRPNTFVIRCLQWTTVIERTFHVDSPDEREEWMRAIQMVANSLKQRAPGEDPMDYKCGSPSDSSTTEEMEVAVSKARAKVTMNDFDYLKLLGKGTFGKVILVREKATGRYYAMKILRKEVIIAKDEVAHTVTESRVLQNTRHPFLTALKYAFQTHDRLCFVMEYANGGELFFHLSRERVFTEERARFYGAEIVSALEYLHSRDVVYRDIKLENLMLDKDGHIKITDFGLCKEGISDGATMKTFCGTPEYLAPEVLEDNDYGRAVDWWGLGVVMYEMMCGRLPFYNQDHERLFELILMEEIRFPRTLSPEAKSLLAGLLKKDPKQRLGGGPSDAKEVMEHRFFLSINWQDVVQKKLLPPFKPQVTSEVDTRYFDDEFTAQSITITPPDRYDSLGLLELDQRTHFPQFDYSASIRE
SRC (human), sequence (P12931 whole entry, looked up): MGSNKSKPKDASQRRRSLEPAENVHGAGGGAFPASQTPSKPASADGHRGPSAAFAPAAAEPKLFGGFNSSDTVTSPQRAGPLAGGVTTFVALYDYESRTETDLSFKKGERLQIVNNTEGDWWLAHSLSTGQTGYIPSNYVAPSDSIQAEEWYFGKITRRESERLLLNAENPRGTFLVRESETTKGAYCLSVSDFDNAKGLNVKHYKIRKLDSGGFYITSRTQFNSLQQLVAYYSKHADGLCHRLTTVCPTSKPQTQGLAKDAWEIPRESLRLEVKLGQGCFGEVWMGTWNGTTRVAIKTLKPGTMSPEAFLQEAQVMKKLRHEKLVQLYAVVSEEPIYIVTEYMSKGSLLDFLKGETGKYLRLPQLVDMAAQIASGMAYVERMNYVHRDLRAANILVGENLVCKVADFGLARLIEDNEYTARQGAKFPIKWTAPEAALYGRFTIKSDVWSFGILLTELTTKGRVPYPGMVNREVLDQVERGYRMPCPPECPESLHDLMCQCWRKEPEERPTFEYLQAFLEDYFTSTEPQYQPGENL
CHEK1 (human), sequence (O14757 whole entry, looked up): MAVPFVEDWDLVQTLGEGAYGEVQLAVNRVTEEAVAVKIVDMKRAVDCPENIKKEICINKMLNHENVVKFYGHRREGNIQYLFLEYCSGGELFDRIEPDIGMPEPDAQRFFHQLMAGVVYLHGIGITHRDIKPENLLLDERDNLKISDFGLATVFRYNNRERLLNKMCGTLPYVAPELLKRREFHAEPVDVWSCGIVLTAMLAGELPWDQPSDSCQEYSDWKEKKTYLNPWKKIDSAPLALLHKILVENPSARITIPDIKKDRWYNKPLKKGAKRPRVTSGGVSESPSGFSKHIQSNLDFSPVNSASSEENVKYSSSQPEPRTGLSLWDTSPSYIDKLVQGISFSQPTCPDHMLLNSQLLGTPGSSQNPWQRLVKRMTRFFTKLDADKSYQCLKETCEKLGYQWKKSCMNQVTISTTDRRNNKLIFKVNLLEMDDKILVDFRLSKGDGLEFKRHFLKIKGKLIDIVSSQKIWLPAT
RPS6KA1 KD1 KD2 (human), sequence (Q15418 whole entry, looked up): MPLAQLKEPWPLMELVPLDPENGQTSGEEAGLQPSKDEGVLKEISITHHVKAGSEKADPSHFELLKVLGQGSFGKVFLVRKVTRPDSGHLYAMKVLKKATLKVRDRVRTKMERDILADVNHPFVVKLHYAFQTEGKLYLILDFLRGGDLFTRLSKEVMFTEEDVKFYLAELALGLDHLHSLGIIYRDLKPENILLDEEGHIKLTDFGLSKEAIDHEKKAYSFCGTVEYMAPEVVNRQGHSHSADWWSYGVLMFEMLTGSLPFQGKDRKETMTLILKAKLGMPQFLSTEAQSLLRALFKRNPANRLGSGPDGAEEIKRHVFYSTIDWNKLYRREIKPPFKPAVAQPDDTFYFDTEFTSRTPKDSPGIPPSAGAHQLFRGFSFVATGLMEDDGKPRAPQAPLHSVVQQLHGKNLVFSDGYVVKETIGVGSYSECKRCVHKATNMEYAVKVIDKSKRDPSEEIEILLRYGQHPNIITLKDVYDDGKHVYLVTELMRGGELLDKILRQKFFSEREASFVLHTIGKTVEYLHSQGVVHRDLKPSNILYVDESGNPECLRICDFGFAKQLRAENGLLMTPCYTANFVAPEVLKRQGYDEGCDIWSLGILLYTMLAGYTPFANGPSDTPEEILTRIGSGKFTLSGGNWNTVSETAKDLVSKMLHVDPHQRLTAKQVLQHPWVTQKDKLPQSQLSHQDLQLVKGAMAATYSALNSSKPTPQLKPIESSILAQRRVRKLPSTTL
MAPK15 (human), sequence (Q8TD08 whole entry, looked up): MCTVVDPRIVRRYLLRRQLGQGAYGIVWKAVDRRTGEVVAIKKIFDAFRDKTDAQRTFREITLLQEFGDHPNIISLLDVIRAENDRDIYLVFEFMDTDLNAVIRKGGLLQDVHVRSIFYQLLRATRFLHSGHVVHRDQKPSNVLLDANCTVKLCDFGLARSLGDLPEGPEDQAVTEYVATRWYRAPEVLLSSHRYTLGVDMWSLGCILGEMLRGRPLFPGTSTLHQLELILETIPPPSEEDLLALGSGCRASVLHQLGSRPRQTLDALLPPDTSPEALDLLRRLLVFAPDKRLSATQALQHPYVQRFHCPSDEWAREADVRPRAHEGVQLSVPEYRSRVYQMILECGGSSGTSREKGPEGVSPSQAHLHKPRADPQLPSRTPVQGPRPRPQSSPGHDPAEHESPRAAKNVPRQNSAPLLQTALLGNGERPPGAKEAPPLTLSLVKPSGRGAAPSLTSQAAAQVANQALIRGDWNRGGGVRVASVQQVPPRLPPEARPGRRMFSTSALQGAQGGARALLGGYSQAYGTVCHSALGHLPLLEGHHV
AURKB (human), sequence (Q96GD4 whole entry, looked up): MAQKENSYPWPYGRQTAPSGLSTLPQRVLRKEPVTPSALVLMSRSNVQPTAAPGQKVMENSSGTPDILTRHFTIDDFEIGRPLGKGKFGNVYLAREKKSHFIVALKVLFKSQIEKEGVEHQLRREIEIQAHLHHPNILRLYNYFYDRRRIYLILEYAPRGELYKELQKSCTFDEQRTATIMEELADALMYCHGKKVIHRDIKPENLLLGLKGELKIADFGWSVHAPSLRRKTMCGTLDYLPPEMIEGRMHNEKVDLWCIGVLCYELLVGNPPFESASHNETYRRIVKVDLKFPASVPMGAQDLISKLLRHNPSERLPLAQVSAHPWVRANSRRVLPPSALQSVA
PIM2 (human), sequence (Q9P1W9 whole entry, looked up): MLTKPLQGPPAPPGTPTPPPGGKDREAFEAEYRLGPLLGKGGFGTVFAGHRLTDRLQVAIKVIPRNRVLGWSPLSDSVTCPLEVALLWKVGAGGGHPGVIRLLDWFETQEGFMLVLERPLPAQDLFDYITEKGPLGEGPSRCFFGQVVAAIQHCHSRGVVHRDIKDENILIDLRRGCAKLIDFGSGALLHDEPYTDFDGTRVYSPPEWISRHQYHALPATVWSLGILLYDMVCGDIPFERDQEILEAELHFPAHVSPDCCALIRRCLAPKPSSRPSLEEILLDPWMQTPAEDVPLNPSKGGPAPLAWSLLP

Oc1ccc(/C=C/c2cc(O)cc(O)c2)cc1
residual activity (MAP2K1 (human); compound 1.0 µM): 99% | residual activity (MAP2K1 (human); compound 10.0 µM): 81% | residual activity (MAP2K1 (human); compound 50.0 µM): 75% | residual activity (CAMKK2 (human); compound 1.0 µM): 107% | residual activity (CAMKK2 (human); compound 10.0 µM): 74% | residual activity (CAMKK2 (human); compound 50.0 µM): 28% | residual activity (GCK (human)): 73% | residual activity (PIM2 (human); compound 1.0 µM): 78% | residual activity (PIM2 (human); compound 10.0 µM): 37% | residual activity (PIM2 (human); compound 50.0 µM): 27% | residual activity (NEK2 (human); compound 1.0 µM): 96% | residual activity (NEK2 (human); compound 10.0 µM): 91% | residual activity (NEK2 (human); compound 50.0 µM): 83% | residual activity (MAPK1 (human); compound 1.0 µM): 102% | residual activity (MAPK1 (human); compound 10.0 µM): 79% | residual activity (MAPK1 (human); compound 50.0 µM): 100% | residual activity (MINK1 (human)): 66% | residual activity (YES1 (human)): 77% | residual activity (PKN2 (human); compound 1.0 µM): 95% | residual activity (PKN2 (human); compound 10.0 µM): 70% | residual activity (PKN2 (human); compound 50.0 µM): 21% | residual activity (MAPK9 (human); compound 1.0 µM): 95% | residual activity (MAPK9 (human); compound 10.0 µM): 86% | residual activity (MAPK9 (human); compound 50.0 µM): 103% | residual activity (IGF1R (human)): 59% | residual activity (SRC (human); compound 1.0 µM): 108% | residual activity (SRC (human); compound 10.0 µM): 81% | residual activity (SRC (human); compound 50.0 µM): 47% | residual activity (STK3 (human); compound 1.0 µM): 84% | residual activity (STK3 (human); compound 10.0 µM): 69% | residual activity (STK3 (human); compound 50.0 µM): 28% | residual activity (PRKAA1 or PRKAA2 (rat); compound 1.0 µM): 103% | residual activity (PRKAA1 or PRKAA2 (rat); compound 10.0 µM): 73% | residual activity (PRKAA1 or PRKAA2 (rat); compound 50.0 µM): 16% | residual activity (MAP3K5 (human)): 77% | residual activity (AURKB (human); compound 1.0 µM): 97% | residual activity (AURKB (human); compound 10.0 µM): 62% | residual activity (AURKB (human); compound 50.0 µM): 22% | residual activity (PHKG1 (human); compound 1.0 µM): 58% | residual activity (PHKG1 (human); compound 10.0 µM): 21% | residual activity (PHKG1 (human); compound 50.0 µM): 23% | residual activity (PRKACA (human); compound 1.0 µM): 106% | residual activity (PRKACA (human); compound 10.0 µM): 101% | residual activity (PRKACA (human); compound 50.0 µM): 91% | residual activity (MARK2 (human)): 86% | residual activity [1]: 69% | residual activity (MAPKAPK2 (human); compound 1.0 µM): 118% | residual activity (MAPKAPK2 (human); compound 10.0 µM): 88% | residual activity (MAPKAPK2 (human); compound 50.0 µM): 71% | residual activity (MAP3K1 (human)): 90% | residual activity (CHEK2 (human); compound 1.0 µM): 84% | residual activity (CHEK2 (human); compound 10.0 µM): 79% | residual activity (CHEK2 (human); compound 50.0 µM): 14% | residual activity (IKBKB (human); compound 1.0 µM): 99% | residual activity (IKBKB (human); compound 10.0 µM): 70% | residual activity (IKBKB (human); compound 50.0 µM): 46% | residual activity (MAPK3 (human); compound 1.0 µM): 101% | residual activity (MAPK3 (human); compound 10.0 µM): 88% | residual activity (MAPK3 (human); compound 50.0 µM): 92% | residual activity ([2]; compound 1.0 µM): 108% | residual activity ([2]; compound 10.0 µM): 67% | residual activity ([2]; compound 50.0 µM): 76% | residual activity (EPHB4 (human)): 99% | residual activity (NTRK1 (human)): 67% | residual activity (CHEK1 (human); compound 1.0 µM): 95% | residual activity (CHEK1 (human); compound 10.0 µM): 79% | residual activity (CHEK1 (human); compound 50.0 µM): 29% | residual activity (MAPK15 (human); compound 1.0 µM): 36% | residual activity (MAPK15 (human); compound 10.0 µM): 10% | residual activity (MAPK15 (human); compound 50.0 µM): 12% | residual activity (MAPK10 (human); compound 1.0 µM): 80% | residual activity (MAPK10 (human); compound 10.0 µM): 87% | residual activity (MAPK10 (human); compound 50.0 µM): 114% | residual activity (RPS6KA1 KD1 KD2 (human); compound 1.0 µM): 77% | residual activity (RPS6KA1 KD1 KD2 (human); compound 10.0 µM): 63% | residual activity (RPS6KA1 KD1 KD2 (human); compound 50.0 µM): 15% | residual activity (PRKCA (human); compound 1.0 µM): 96% | residual activity (PRKCA (human); compound 10.0 µM): 82% | residual activity (PRKCA (human); compound 50.0 µM): 58% | residual activity (MKNK1 (human); compound 1.0 µM): 102% | residual activity (MKNK1 (human); compound 10.0 µM): 66% | residual activity (MKNK1 (human); compound 50.0 µM): 125% | residual activity (MKNK2 (human); compound 1.0 µM): 74% | residual activity (MKNK2 (human); compound 10.0 µM): 96% | residual activity (MKNK2 (human); compound 50.0 µM): 34%
